From patent US20170119693A1, “Methods of Improving Glucose Tolerance, Hair Regrowth, and Bio-Availability” (priority 2015, published 2017)

Legend:
Assay type in all cases: in vivo
[1] = system: female Albino Wistar rats; test: glucose tolerance test; settings: 25, 50, 75 mg/kg body wt daily for four months; 6 h fast, 2 g/kg intraperitoneally, tail vein blood 0-120 min; p<0.01 ResArgin, p<0.05 resveratrol
Protocol: (§1) To determine the efficacy of resveratrol-arginine conjugate, six month old female Albino Wistar rats were divided into seven groups (six rats per group) and given the following daily treatment for four months: • Group 1: Control; • Group 2: 25 mg ResArgin/kg body wt; • Group 3: 50 mg ResArgin/kg body wt; • Group 4: 75 mg ResArgin/kg body wt; • Group 5: 25 mg Resveratrol/kg body wt; • Group 6: 50 mg Resveratrol/kg body wt;
Group 7: 75 mg Resveratrol/kg body wt. In one embodiment, glucose tolerance levels were tested via a glucose tolerance test and analysis was performed. Compared to the Control group, glucose tolerance was improved in the ResArgin and resveratrol groups (p<0.01 and p<0.05 respectively) over the experimental period.
In one embodiment, glucose tolerance tests were performed after having the rats fast for 6 hours and injecting 2 g/kg body weight intraperitoneally. Blood was then collected from the tail vein at 0, 15, 30, 60 and 120 minutes after injection.

[2] = system: female Albino Wistar rats; test: hair regrowth assay; settings: 25, 50, 75 mg/kg body wt daily for four months; dorsal hair plucked 1.5 cm x 1.5 cm, scored two weeks later from digital photographs
Protocol: as §1
In another embodiment, hair regrowth assay was done and quantified. Compared to the Control group, hair regrowth was improved in the ResArgin and resveratrol groups over the experimental period.
In the hair regrowth assay, dorsal hair was removed by plucking from a square of approximately 1.5 cm×1.5 cm. Hair growth and re-growth was scored two weeks later on the basis of digital photographs.

[3] = system: female Albino Wistar rats; test: four month daily treatment study, investigated age related conditions overall; settings: summary of the study; effects of ResArgin being more significant than those of resveratrol
Protocol: as §1
Based on the results of the study performed, the effective dosage of resveratrol arginine conjugate is 10 to 250 mg per kilogram of body weight for a period of at least two weeks.

## Oc1ccc(C=Cc2cc(O)cc(O)c2)cc1 [resveratrol]
[1]
  glucose tolerance compared to the Control group: improved
[2]
  hair regrowth compared to the Control group: improved
[3]
  effect on the investigated age related conditions: significantly improved
